Consider 22 compounds from ChEMBL document CHEMBL4402604, “Discovery and Structure-Activity Relationship Study of (Z)-5-Methylenethiazolidin-4-one Derivatives as Potent and Selective Pan-phosphatidylinositol 5-Phosphate 4-Kinase Inhibitors” (J Med Chem, 2020).

Structures are written as SMILES. The source made the active and inactive calls. The rule behind the calls is not given here.

A short description of data set [1]: Lipophilicity, logD of the compound. To be noted: octanol/water. The class given is physicochemical.
The nature of data set [2]: Stability in rat liver microsomes at 1 uM in presence of NADPH regeneration system incubated for 15 mins by LC-MS analysis. The class given is ADME, Microsome. In general terms: Liver microsomes are vesicles of endoplasmic reticulum, rich in cytochrome P450 enzymes.
A short description of data set [3]: Permeability of the compound by PAMPA method. The class given is ADME. Background: In PAMPA a lipid-coated filter parts donor from acceptor wells.
Data set [4] addresses Activin receptor type-2A (Homo sapiens) (UniProt P27037). Nature of the data set: Inhibition of human ACVR2A expressed in baculovirus expression system.

Activin receptor type-2A (Homo sapiens), sequence (P27037 whole entry): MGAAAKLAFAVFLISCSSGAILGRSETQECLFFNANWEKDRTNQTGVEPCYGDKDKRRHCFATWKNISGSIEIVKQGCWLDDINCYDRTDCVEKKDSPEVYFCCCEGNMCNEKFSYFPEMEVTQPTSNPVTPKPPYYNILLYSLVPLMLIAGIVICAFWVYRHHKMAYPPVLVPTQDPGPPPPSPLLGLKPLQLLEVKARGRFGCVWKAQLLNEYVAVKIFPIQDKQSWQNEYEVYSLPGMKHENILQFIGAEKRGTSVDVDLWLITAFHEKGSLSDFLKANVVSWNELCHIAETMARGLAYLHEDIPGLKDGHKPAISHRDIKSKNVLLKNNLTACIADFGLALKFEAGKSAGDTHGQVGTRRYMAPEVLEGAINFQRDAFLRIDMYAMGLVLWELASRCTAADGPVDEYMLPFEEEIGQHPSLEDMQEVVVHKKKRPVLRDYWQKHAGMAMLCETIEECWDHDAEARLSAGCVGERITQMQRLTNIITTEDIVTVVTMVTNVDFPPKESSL

One may read the logD as lipophilicity at a set pH, counting ionised and neutral species. Read a high logD as a more lipophilic compound. In the case of `CC(=O)Nc1cccc(Oc2cncc(-c3ccc(NS(C)(=O)=O)cc3)c2)c1`, the pH-dependent lipophilicity (logD) in data set [1] was determined as 1.5. On to `CS(=O)(=O)Nc1ccc(-c2cncc(/C=C3\SC(=N)NC3=O)c2)cc1`, for which the Stability result in data set [2] was “Stable”. Further, the permeability entry in data set [3] was “Impermeable”. In addition, the logD in data set [1] came to 0.66. With `CS(=O)(=O)Nc1ccc(-c2cnc(N)c(/C=C3\SC(=N)NC3=O)c2)cc1`, the logD in data set [1] was found to be 0.41. On the same count and under the same terms, then `CC(=O)Nc1cccc(-c2cncc(/C=C3\SC(=N)NC3=O)c2)c1`, with 1.5; and `CC(=O)Nc1ccc(-c2cncc(/C=C3\SC(=N)NC3=O)c2)cc1`, with 1.5; and `CNC(=O)Nc1ccc(-c2cncc(/C=C3\SC(=N)NC3=O)c2)cc1`, with 1.4. Take `CNC(=O)Nc1ccc(-c2cncc(-c3ccc(NS(C)(=O)=O)cc3)c2)cc1`: the logD in data set [1] came out at 1.6. With `CS(=O)(=O)Nc1ccc(-c2cncc(/C=C3\CC(=O)NC3=O)c2)cc1`, the logD in data set [1] is -0.14. `N=C1NC(=O)/C(=C/c2cncc(-c3ccc(OC(F)(F)F)cc3)c2)S1` came in with a logD in data set [1] of 3.7.

Regarding `CS(=O)(=O)Nc1ccc(-c2cc(/C=C3\SC(=N)NC3=O)cnc2N)cc1`, the Stability result in data set [2] is given as “Stable”. The permeability result in data set [3] is “Impermeable”. In addition, in data set [1], the logD stood at 0.41. On to `CC(=O)Nc1cccc(-c2cncc(-c3ccc(NS(C)(=O)=O)cc3)c2)c1`, for which, in data set [1], the logD amounted to 1.7. `CS(=O)(=O)Nc1ccc(-c2cncc(/C=C3\OC(=O)NC3=O)c2)cc1`: the logD in data set [1] is -1. Same read-out and setting: then `CS(=O)(=O)Nc1ccc(-c2cncc(-c3ccc4[nH]ccc4c3)c2)cc1`, with 2.5. With `CS(=O)(=O)Nc1ccc(-c2cncc(/C=C3\SC(=O)NC3=O)c2)cc1`, in data set [2], the Stability result is recorded as “Stable”. Moreover, the logD in data set [1] is -0.05. In the case of `COc1ccc(-c2cncc(/C=C3\SC(=N)NC3=O)c2)c2ccccc12`, in data set [1], the logD was 3.1.

Compound `CS(=O)(=O)c1ccc(-c2cncc(/C=C3\SC(=N)NC3=O)c2)cc1` returned a logD in data set [1] of 1.1. Compound `CNS(=O)(=O)c1ccc(-c2cncc(/C=C3\SC(=N)NC3=O)c2)cc1` showed a logD in data set [1] of 1.1.

For `CC(=O)Nc1cccc(Nc2cncc(-c3ccc(NS(C)(=O)=O)cc3)c2)c1`, the logD in data set [1] amounted to 1.5. Same read-out and setting: then `CN(C)c1ccc(-c2cncc(/C=C3\SC(=N)NC3=O)c2)cc1`, with 2.4.

In turn, `CS(=O)(=O)Nc1ccc(-c2cncc(-c3ccc4cc[nH]c4c3)c2)cc1` showed a logD in data set [1] of 2.5. This logD and that of the compound before are within 0.2 log units of each other. `CS(=O)(=O)Nc1ccc(-c2cncc(-c3cccc4[nH]ccc34)c2)cc1`: the Stability result in data set [2] is on record as “Stable”. Moreover, the permeability result in data set [3] is reported as “Permeable”. This compound showed a logD in data set [1] of 2.5. In addition, the inhibition entry in data set [4] is “Active”.

Compound `CS(=O)(=O)Nc1ccc(-c2cncc(-c3cccc4c3CC(=O)N4)c2)cc1` registered a log distribution coefficient (logD) in data set [1] of 1.5.
